Patent EP0614465B1, “HYBRID PROTEIN BETWEEN CS FROM […] HBsAG” (SMITHKLINE BEECHAM BIOLOGICALS S.A., priority 1991, dated 1993)

System: R32tet32 antigen
Test: immunogenicity in mice: anti-R32tet32 (anti-repeat) antibody titer by ELISA
Type: in vivo, Balb/C mice
Conditions: effect of 3D-MPL (50 µg/dose) added to (RTS,S) on A1(OH)3

Substance: 3 Deacylated monophosphoryl lipid A [3D-MPL]
- primary antibody response in mice: enhanced
